Test results as given in article PMC3454376, “Salidroside Improves Behavioral and Histological Outcomes and Reduces Apoptosis via PI3K/Akt Signaling after Experimental Traumatic Brain Injury” (PLoS ONE, 2012).

System: mice subjected to controlled cortical impact injury
Test: Beam walk test after CCI
Type: in vivo
Experimental: All animal procedures were approved by the Animal Research Committee at Cheng Hsin General Hospital (Animal permit number […] 101-08), and all procedures complied with the Guide for the Care and Use of Laboratory Animals published by the US National Institutes of Health (NIH Publication No. 85-23, revised 1996). Animals were housed under a 12-h light/dark cycle and at constant temperature (21-25°C) and humidity (45-50%). They were allowed free access to pellet chow and water. TBI in mice was induced by a CCI injury model as previously described. Briefly, 8-week-old male C57BL/6 mice (weighing 22-25 g) were anesthetized through the use of intraperitoneal injection of sodium pentobarbital (65 mg/kg; Rhone Merieux, Harlow, UK) and placed in a stereotaxic frame. A 5 mm craniotomy was performed over the right parietal cortex, centered on the coronal suture and 0.1 mm lateral to the sagittal suture, and injury to dura was avoided. […] Body temperature was monitored throughout the surgery by a rectal probe; temperature was maintained at 37.0±0.5°C using a heated pad. […] To determine the optimal dose of salidroside, a pilot study was performed using 2 different doses (20 and 50 mg/kg) administered 10 min after injury, and neurological deficits and tissue damage were evaluated as the main outcomes. […]

OC[C@H]1O[C@@H](OCCc2ccc(O)cc2)[C@H](O)[C@@H](O)[C@@H]1O [SALD, salidroside]
beam walk latency versus vehicle group (20 mg/kg ip 10 min after CCI, days 4 and 21, P<0.05 and 0.01): significant difference | beam walk latency, treatment effect versus vehicle (50 mg/kg ip 10 min after CCI, P<0.05): significant only at day 4
